# Test results from EP0934745B1, “Use of androsterone derivatives for inhibiting DNA binding of ap-1 and airway smooth muscle proliferation” (CHARLOTTE-MECKLENBURG HOSPITAL doing business as Carolinas …, priority 1998, dated 1999).
# Tested on: transcription factor activator protein-1 (AP-1)
# Experiment: Electrophoretic mobility shift assay of DNA binding of AP-1 in nuclear protein from treated cells
# Format: cell-based, rat
# Conditions: pretreated 2 hours, then 10% FBS 6 hours; 50 µM DHEA; 2 and 10 µM 16α-BrEA (Figures 8A, 8B)
# Protocol: To study the effect of DHEA and 16α-BrEA on activation of AP-1, a secondary response important in cellular growth and proliferation (Angel and Karin, (1991), supra) confluent monolayers of airway smooth muscle in 75-cm^2 Petri dishes were growth arrested for 24 hours in 0.5% FBS and DMEM and pretreated 2 hours with DHEA, 16α-BrEA or DMSO vehicle. Cells were then stimulated with 10% FBS in DMEM for 6 hours, nuclear protein was harvested, and electrophoretic mobility shift assays were performed as described below to determine if treatment with DHEA and 16α-BrEA impaired DNA binding of AP-1. Measurement of Cytotoxicity and Apoptosis. To assess for cytotoxicity, DHEA or 16α-BrEA were added to wells of airway smooth muscle cells previously grown to confluence in DMEM and 10% FBS. After 24 hours, media was microfuged 5 minutes and supernatant was assayed for lactate dehydrogenase activity using a commercially available assay (DG-1340K from Sigma). Cells were washed twice in DPBS and exposed to trypan blue dye (0.04% in Hanks' balanced salt solution). Cell counts were performed in five random fields using a 0.01-cm^2 ocular grid to quantitate the average number of damaged or dead cells that accumulated dye.
# RNA (100 ng) was reverse-transcribed using M-MLV reverse transcriptase. […] The resulting polaroid negative was quantitated using a Bio Image Analyzer (Bio Image, Ann Arbor, MI). […]
row,SMILES,DNA binding of AP-1
1,"C[C@]12CC[C@H](O)C[C@@H]1CC[C@@H]1[C@@H]2CC[C@]2(C)C(=O)[C@H](Br)C[C@@H]12 [16α-BrEA, 16α-bromoepiandrosterone]",inhibit DNA binding of AP-1
2,"C[C@]12CC[C@H](O)CC1=CC[C@@H]1[C@@H]2CC[C@]2(C)C(=O)CC[C@@H]12 [DHEA, dehydroepiandrosterone]",inhibit DNA binding of AP-1
